Experimental data reported in patent US10844349B2 (Albumedix Ltd., priority 2011, dated 2020).

What was measured:
[1] = Microtitre plate insoluble aggregate test: time for A350 to increase by 0.2 AU at 65° C.; format: physicochemical; settings: cation chlorides 50-500 mM, albumin 10 mg/mL, pH 6.43, 65° C.
Description: The microtitre plate was gently rocked to mix the contents of each well, centrifuged to remove any air bubbles and placed in a Biotek Synergy Mx (Potton, UK) plate reader that had been pre-equilibrated and controlled at 65° C. The plate was then read at 350 nm every minute over a total incubation time of 8 hours. Gen5 software (Biotek software for the plate reader version 2.00.18) was used to calculate the time taken for the A350 nm absorbance to increase by 0.2 adsorption units above a base line. The base line was calculated from the mean of the first 5 data points.

[2] = tested on: Human embryonic stem cells (cell lines SAl21 and SA181); assay: Effect of octanoate on stem cell culture (attachment, growth, undifferentiated state over 5 passages; text summary for both cell lines); format: cell-based; settings: 8 mM octanoate in 100 g/L albumin
Description: The effect of octanoate on stem cell culture was carried out by a contract research organization: Cellartis AB (Gothenburg, Sweden). […] The cell growth over the 5 passages was assessed by monitoring the cell doubling times during consecutive passages in cell production. The doubling times of cultures should be within a range of 28-40 hours, and can be seen as a trend indicator.

| albumin stability (time for A350 to increase by 0.2 AU) [1] | SMILES | toxicity to stem cells [2] |
| --- | --- | --- |
| very good | [Cl-].[Cl-].[Mg+2] [MgCl2] |  |
|  | CCCCCCCC(=O)O [octanoate] | toxic to stem cells |
